In the supplement of paper PMC11061612:

Legend:
[1] = test system: KMOE-2 (Acute Myeloid Leukemia); experiment: Bliss excess, mean over the matrix (fraction); higher = more synergy
How it was run: (§1)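 Cell lines grown in DMEM/F12 or RPMI with 10% FBS were plated in 1536-well plates and held 24 hours at 37°C, 5% CO2 before 72 hours of exposure to two-drug dose matrices, with DMSO typically at 0.2%. CellTiter-Glo 2.0 luminescence gave viability, which was converted to inhibition. Vehicle wells were set to 0 and blank wells to 1. Combination Emax is the second-highest inhibition in the matrix, and Bliss excess is the observed combination effect minus the expected EA + EB − EA·EB, where EA and EB are the single-agent effects.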

[2] = test system: NCI-H358 (Lung Adenocarcinoma); experiment: as above
How it was run: as §1

[3] = test system: SW13 (Other Solid Carcinomas); experiment: as above
How it was run: as §1

[4] = test system: HGC-27 (Gastric Carcinoma); experiment: as above
How it was run: as §1

[5] = test system: EFM-19 (Breast Carcinoma); experiment: as above
How it was run: as §1

[6] = test system: OE19 (Esophageal Adenocarcinoma); experiment: as above
How it was run: as §1

[7] = test system: Ca9-22 (Head and Neck Carcinoma); experiment: as above
How it was run: as §1

[8] = test system: MIA-PaCa-2 (Pancreatic Carcinoma); experiment: as above
How it was run: as §1

[9] = test system: SU8686 (Pancreatic Carcinoma); experiment: as above
How it was run: as §1

[10] = test system: RF-48 (B-Cell Non-Hodgkin's Lymphoma); experiment: as above
How it was run: as §1

[11] = test system: HOP-62 (Lung Adenocarcinoma); experiment: as above
How it was run: as §1

TK10 (Kidney Carcinoma) = experiment: as above
How it was run: as §1

NB69 (Neuroblastoma) = experiment: as above
How it was run: as §1

[12] = test system: KYSE-450 (Esophageal Squamous Cell Carcinoma); experiment: as above
How it was run: as §1

EW-24 (Ewing's Sarcoma) = experiment: as above
How it was run: as §1

PWR-1E (Non-Cancerous) = experiment: as above
How it was run: as §1

[13] = test system: BT-549 (Breast Carcinoma); experiment: as above
How it was run: as §1

[14] = test system: NCI-H727 (Other Solid Carcinomas); experiment: as above
How it was run: as §1

[15] = test system: KARPAS-299 (T-Cell Non-Hodgkin's Lymphoma); experiment: as above
How it was run: as §1

UACC-62 (Melanoma) = experiment: combination Emax (second highest fraction inhibited in the dose matrix, 72 h); higher = more inhibition; extreme values may be limits of the assay
How it was run: as §1
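For Bliss excess, mean over the matrix in this document: after 72 h of two-drug dosing.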

SMILES	Bliss excess [1]	Bliss excess [2]	Bliss excess [3]	Bliss excess [4]	Bliss excess [5]	Bliss excess [6]	Bliss excess [7]	Bliss excess [8]	Bliss excess [9]	Bliss excess [10]	Bliss excess [11]	Bliss excess (TK10 (Kidney Carcinoma))	Bliss excess (NB69 (Neuroblastoma))	Bliss excess [12]	Bliss excess (EW-24 (Ewing's Sarcoma))	Bliss excess (PWR-1E (Non-Cancerous))	Bliss excess [13]	Bliss excess [14]	Bliss excess [15]	combination Emax (UACC-62 (Melanoma))
COc1nnc2ccc(N3CCC(c4ccc(OCCN5CCN(C)C(=O)[C@H]5C)cc4)CC3)nn12 [AZD5153] + Cn1cnc2c(F)c(Nc3ccc(Br)cc3Cl)c(C(=O)NOCCO)cc21 [Selumetinib] (first compound max 1 µM, 7x7, partner max 10 µM)	0.0402	-0.0409	0.0304	-0.083	-0.0565	-0.02	0.0592	-0.0371	-0.0166	-0.0939	-0.0724	0.0204	0.0191	0.025	-0.0748	-0.0044	-0.0019	-0.0146	0.0528	0.947
CC(=O)c1c(C)c2cnc(Nc3ccc(N4CCNCC4)cn3)nc2n(C2CCCC2)c1=O [Palbociclib] + Cn1cnc2c(F)c(Nc3ccc(Br)cc3Cl)c(C(=O)NOCCO)cc21 [Selumetinib] (first compound max 10 µM, 7x7, partner max 10 µM)	-0.0028	-0.0489	0.044	0.0403	-0.0313	0.0203	0.0539	0.0413	-0.0971	-0.0489	-0.0079	0.0072	0.0829	0.0539	-0.0617	-0.0609	-0.0254	-0.0139	0.0661	0.764
CN(C)CCCOc1ccc(-c2ccc3ncc4c(c3c2)n(C2CCOCC2)c(=O)n4C)cn1 [AZD0156] + C=CCn1c(=O)c2cnc(Nc3ccc(N4CCN(C)CC4)cc3)nc2n1-c1cccc(C(C)(C)O)n1 [AZD1775] (first compound max 1 µM, partner max 1 µM)	-0.039	0.0011	-0.0449	0.0088	-0.0295	0.0012	-0.0042	-0.0303	-0.0231	-0.0093	-0.0403	-0.0318	-0.0337	-0.0487	-0.0804	0.0144	-0.0986	-0.095	0.0063	0.391
CC1(C)CCC(CN2CCN(c3ccc(C(=O)NS(=O)(=O)c4ccc(NCC5CCOCC5)c([N+](=O)[O-])c4)c(Oc4cnc5[nH]ccc5c4)c3)CC2)=C(c2ccc(Cl)cc2)C1 [Venetoclax] + CCN(CCO)CCCOc1ccc2c(Nc3cc(CC(=O)Nc4cccc(F)c4)[nH]n3)ncnc2c1 [AZD2811] (first compound max 1 µM, 7x7, partner max 1 µM)	-0.0506	-0.0315	0.0311	0.0075	0.0005	-0.0176	0.0079	-0.0362	-0.0364	0.0498	-0.0222	-0.0927	0.0179	-0.0215	0.0194	-0.0234	-0.0111	-0.0795	0.0871	0.28
CC(=O)c1c(C)c2cnc(Nc3ccc(N4CCNCC4)cn3)nc2n(C2CCCC2)c1=O [Palbociclib] + Cc1c2c(nn1C)CSCc1cc(n(C)n1)CSc1cc(c3ccccc3c1)OCCCc1c(C(=O)O)n(C)c3c-2c(Cl)ccc13 [AZD5991] (first compound max 10 µM, 7x7, partner max 1 µM)	-0.0002	-0.0249	0.0252	-0.0219	-0.0005	0.0014	-0.0032	0.0265	-0.0405	-0.0722	-0.0573	-0.0228	0.0058	-0.0623	-0.0178	0.0128	0.0106	0.0353	0.0262	0.588
C[C@@H]1COCCN1c1cc(C2([S@](C)(=N)=O)CC2)nc(-c2ccnc3[nH]ccc23)n1 [AZD6738] + O=C(c1cc(Cc2n[nH]c(=O)c3ccccc23)ccc1F)N1CCN(C(=O)C2CC2)CC1 [Olaparib] (first compound max 10 µM, 7x7, partner max 10 µM)	0.0413	-0.0276	0.0093	0.0231	0.0141	-0.133	-0.042	-0.016	-0.0231	-0.0422	0.0092	-0.0735	0.045	0.0066	-0.0177	-0.0632	0.0032	-0.0317	-0.0073	0.509
NC1(C(=O)N[C@@H](CCO)c2ccc(Cl)cc2)CCN(c2ncnc3[nH]ccc23)CC1 [Capivasertib] + COc1nnc2ccc(N3CCC(c4ccc(OCCN5CCN(C)C(=O)[C@H]5C)cc4)CC3)nn12 [AZD5153] (first compound max 10 µM, 7x7, partner max 1 µM)	-0.0211	-0.0514	-0.0086	0.0097	0.0634	0.0561	-0.0073	-0.0594	-0.0359	-0.0275	-0.0633	-0.0154	-0.0299	-0.0508	0.0532	0.0579	0.0602	0.0278	-0.0453	0.56
NC1(C(=O)N[C@@H](CCO)c2ccc(Cl)cc2)CCN(c2ncnc3[nH]ccc23)CC1 [Capivasertib] + Cn1cnc2c(F)c(Nc3ccc(Br)cc3Cl)c(C(=O)NOCCO)cc21 [Selumetinib] (first compound max 10 µM, 7x7, partner max 10 µM)	0.0417	-0.0396	0.102	-0.0414	-0.034	0.0786	-0.0383	0.0259	0.0012	-0.0343	-0.0367	0.0043	0.0278	0.0292	-0.0223	-0.0246	0.01	-0.0113	0.117	0.908
COc1cccc2c1C(=O)c1c(O)c3c(c(O)c1C2=O)C[C@@](O)(C(=O)CO)C[C@@H]3O[C@H]1C[C@H](N)[C@H](O)[C@H](C)O1 [Doxorubicin] + Cc1cc2ncnn2cc1Nc1ncc2c(n1)n(C1CCOCC1)c(=O)n2C [AZD7648] (first compound max 1 µM, 7x7, partner max 10 µM)	0.0867	0.0186	0.0466	0.0171	0.0055	0.0189	0.0703	0.0167	-0.0262	0.021	0.0399	0.0138	0.0516	0.0487	0.0145	0.12	0.0233	-0.0417	0.1	0.935
CN(CCO)CC[C@H](CSc1ccccc1)Nc1ccc(S(=O)(=O)NC(=O)c2ccc(N3CCC([C@@H](O)c4ccccc4-c4ccc(Cl)cc4)CC3)cc2)cc1S(=O)(=O)C(F)(F)F [AZD4320] + CN(C)CCCOc1ccc(-c2ccc3ncc4c(c3c2)n(C2CCOCC2)c(=O)n4C)cn1 [AZD0156] (first compound max 1 µM, 7x7, partner max 1 µM)	0.0446	-0.0101	-0.019	-0.064	-0.0491	-0.086	-0.0338	-0.0626	-0.0404	-0.0469	-0.0619	-0.0373	-0.12	-0.0485	-0.0096	-0.0208	-0.0354	-0.0606	0.0129	0.182
Cn1cnc2c(F)c(Nc3ccc(Br)cc3Cl)c(C(=O)NOCCO)cc21 [Selumetinib] + CCN(CCO)CCCOc1ccc2c(Nc3cc(CC(=O)Nc4cccc(F)c4)[nH]n3)ncnc2c1 [AZD2811] (first compound max 10 µM, 7x7, partner max 1 µM)	-0.0124	-0.0743	-0.0919	-0.0515	0.0054	-0.0015	0.0241	0.0585	-0.0179	-0.0305	-0.0772	-0.0589	-0.0155	-0.0117	-0.014	-0.0175	-0.0216	-0.0389	0.0227	0.815
COc1nnc2ccc(N3CCC(c4ccc(OCCN5CCN(C)C(=O)[C@H]5C)cc4)CC3)nn12 [AZD5153] + C=CCn1c(=O)c2cnc(Nc3ccc(N4CCN(C)CC4)cc3)nc2n1-c1cccc(C(C)(C)O)n1 [AZD1775] (first compound max 1 µM, partner max 1 µM)	0.0656	-0.113	-0.0336	-0.0229	-0.026	-0.0441	-0.0453	-0.0019	-0.0147	-0.012	-0.0674	-0.0831	-0.0206	-0.0699	-0.0125	-0.127	-0.0585	-0.0299	-0.0336	0.577
COc1cccc(OCCCN)c1-c1cc(Nc2cnc(C#N)cn2)n[nH]1 [Prexasertib] + CCc1c2c(nc3ccc(O)cc13)-c1cc3c(c(=O)n1C2)COC(=O)[C@]3(O)CC [SN-38] (first compound max 1 µM, 7x7, partner max 0.3 µM)	0.0296	-0.0212	0.0459	0.0388	0.155	0.129	0.0163	0.0334	0.02	-0.0572	-0.0279	-0.0257	-0.0556	0.19	-0.0615	0.0309	-0.0474	-0.0425	-0.0223	0.817
CC(=O)c1c(C)c2cnc(Nc3ccc(N4CCNCC4)cn3)nc2n(C2CCCC2)c1=O [Palbociclib] + CC1(C)CCC(CN2CCN(c3ccc(C(=O)NS(=O)(=O)c4ccc(NCC5CCOCC5)c([N+](=O)[O-])c4)c(Oc4cnc5[nH]ccc5c4)c3)CC2)=C(c2ccc(Cl)cc2)C1 [Venetoclax] (first compound max 10 µM, 7x7, partner max 1 µM)	-0.015	-0.0862	-0.0444	0.046	-0.0475	-0.0449	-0.0044	-0.0392	-0.0391	-0.112	-0.0132	-0.0312	0.0084	-0.0407	0.0021	-0.0229	-0.034	0.0029	-0.0496	0.0969
